Data from publication PMC9029893 (International Journal of Molecular Sciences, 2022).

Tests used:
[1] = test system: HUVEC cells; assay: Glucose utilization assay (2-NBDG uptake); type: cell-based, human; conditions: 24 h, then insulin and 2-NBDG
[2] = test system: HUVEC cells; assay: HUVEC integrity in RTCA-DP system (normalized cell index); type: cell-based, human
Procedure, shortened: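 HUVEC seeded at 15,000 cells per well and grown to plateau before compounds in culture medium were added. Electrical impedance tracked in real time over 48 h; results given as mean ± SD normalized cell index (CI at a time point divided by CI at a reference point), n = 4–6.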

[3] = test system: HUVEC cells; assay: HUVEC migration, wound-healing assay (JuLI Stage); type: cell-based, human
Procedure, shortened: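 HUVECs were seeded at 10,000 cells/well, grown 24 h, scratched, then treated with compound at 0.3 and 1.0 mM in EGM2 medium. Imaging ran every 10 min for 36 h at 37 °C, 5% CO2, and scratch-area width was measured from the images; mean ± SD, n = 4–8.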

[4] = molecular target: antithrombin III (AT) (Homo sapiens, UniProt P01008); assay: Activity of antithrombin III (AT); type: biochemical
Protocol: The activity of AT in human plasma was estimated spectrophotometrically using a diagnostic laboratory method. […] In the control samples, 10 μL of distilled water and methanol (1:1) was used. The reaction was initiated by the addition of a chromogenic substrate dissolved in water for injection; as a result, p-nitroaniline was released proportionally to the level of AT. The evaluation of AT level was performed on the basis of a calibration curve performed on calibrator diluted in the range 1:30–1:120 (λ = 405 nm) by the coagulometer program (CoagChrom-3003 Bio Ksel, Grudziadz, Poland). The coefficient of variability for the method (CV) was 2.69%, and the reference range was 80%–130%.

[5] = test system: coagulation in human citrate plasma; assay: Coagulation assay (endogenous thrombin generation); type: biochemical
Protocol: These reagents induce a feedback reaction leading to the generation of endogenous thrombin, and coagulation. The other experimental conditions were the same as for the CL-test (Section 4.12).
The obtained curves were analyzed using dedicated software that estimates the following parameters: TGt—thrombin generation time (s), Fmax—maximum clotting (%T), Tf—plasma clotting time (s), Fvo—initial plasma clotting velocity (%T/min), Sf—area under the clot formation curve (%Txmin), Tc—clot stabilization time (s), S—area under the curve of coagulation (%Txmin).

antithrombin III (AT), sequence (P01008 33-464): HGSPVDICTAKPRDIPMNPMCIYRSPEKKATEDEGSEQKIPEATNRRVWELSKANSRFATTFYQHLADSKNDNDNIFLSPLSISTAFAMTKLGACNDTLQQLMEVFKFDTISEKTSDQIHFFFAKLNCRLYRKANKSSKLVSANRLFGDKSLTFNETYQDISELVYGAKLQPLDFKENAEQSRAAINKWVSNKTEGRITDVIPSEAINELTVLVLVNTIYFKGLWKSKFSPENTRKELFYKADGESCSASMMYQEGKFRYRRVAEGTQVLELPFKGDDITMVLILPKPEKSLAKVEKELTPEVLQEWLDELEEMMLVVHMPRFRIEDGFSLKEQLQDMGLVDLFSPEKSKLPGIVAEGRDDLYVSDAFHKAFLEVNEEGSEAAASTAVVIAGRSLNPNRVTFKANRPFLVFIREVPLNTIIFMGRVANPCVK

## CCCCCCCCS(=O)(=O)NC(N)=NC(=N)N(C)C [Compound 2]
[1]; 0.1 mM
  Glucose uptake (intracellular 2-NBDG): 0.0139 ± 0.0003 mM
[1]; 0.3 mM
  Glucose uptake (intracellular 2-NBDG): 0.0146 ± 0.001 mM
[2]; 0.3 mM, 3 hours
  normalized Cell Index (nCI): 0.608 ± 0.038
[2]; 0.3 mM, 6 hours
  normalized Cell Index (nCI): 0.693 ± 0.022
[2]; 0.3 mM, 12 hours
  normalized Cell Index (nCI): 0.676 ± 0.047
[2]; 0.3 mM, 24 hours
  normalized Cell Index (nCI): 0.522 ± 0.030
[2]; 0.3 mM, 36 hours
  normalized Cell Index (nCI): 0.761 ± 0.008
[2]; 1.0 mM, 3 hours
  normalized Cell Index (nCI): 0.652 ± 0.006
[2]; 1.0 mM, 6 hours
  normalized Cell Index (nCI): 0.706 ± 0.007
[2]; 1.0 mM, 12 hours
  normalized Cell Index (nCI): 0.719 ± 0.005
[2]; 1.0 mM, 24 hours
  normalized Cell Index (nCI): 0.731 ± 0.002
[2]; 1.0 mM, 36 hours
  normalized Cell Index (nCI): 0.379 ± 0.032
[3]; 0.3 mM, 6 hours
  wound width: 493.8 ± 133.1 µm
[3]; 0.3 mM, 12 hours
  wound width: 442.4 ± 142.9 µm
[3]; 0.3 mM, 18 hours
  wound width: 351.4 ± 82.6 µm
[3]; 0.3 mM, 24 hours
  wound width: 328.6 ± 56.9 µm
[3]; 0.3 mM, Start
  wound width: 637.4 ± 116.3 µm
[3]; 1.0 mM, 6 hours
  wound width: 590.8 ± 40.2 µm
[3]; 1.0 mM, 12 hours
  wound width: 541.5 ± 99.2 µm
[3]; 1.0 mM, 18 hours
  wound width: 453.1 ± 106.1 µm
[3]; 1.0 mM, 24 hours
  wound width: 357.2 ± 68.1 µm
[3]; 1.0 mM, Start
  wound width: 712.4 ± 56.5 µm
[4]; 0.06 mM
  activity of AT III: 121.00 ± 4.90%
[4]; 0.3 mM
  activity of AT III: 127.75 ± 10.44%
[4]; 0.6 mM
  activity of AT III: 125.75 ± 10.87%
[4]; 1.5 mM
  activity of AT III: 129.00 ± 11.46%
[5]; 0.06 mM
  Fmax—maximum clotting: 85.20 ± 6.52 %T
  Fvo—initial plasma clotting velocity: 124.35 ± 37.66 %T/min
  Sc—area under the curve of a stable clot formation: 562.66 ± 156.02 %T x min
  Sf—area under the clot formation curve: 91.44 ± 30.65 %T x min
  S—overall potential of clot formation: 1638.19 ± 135.59 %T x min
  TGt—thrombin generation time: 151.33 ± 26.37 s
  Tf—plasma clotting time: 98.28 ± 33.46 s
[5]; 0.3 mM
  Fmax—maximum clotting: 85.12 ± 5.67 %T
  Fvo—initial plasma clotting velocity: 142.17 ± 46.90 %T/min
  Sc—area under the curve of a stable clot formation: 602.85 ± 84.63 %T x min
  Sf—area under the clot formation curve: 79.63 ± 20.32 %T x min
  S—overall potential of clot formation: 1641.98 ± 118.29 %T x min
  TGt—thrombin generation time: 135.67 ± 25.90 s
  Tf—plasma clotting time: 85.08 ± 25.10 s
[5]; 0.6 mM
  Fmax—maximum clotting: 83.60 ± 6.72 %T
  Fvo—initial plasma clotting velocity: 140.83 ± 37.45 %T/min
  Sc—area under the curve of a stable clot formation: 583.07 ± 90.13 %T x min
  Sf—area under the clot formation curve: 88.00 ± 18.58 %T x min
  S—overall potential of clot formation: 1611.84 ± 135.58 %T x min
  TGt—thrombin generation time: 153.33 ± 21.05 s
  Tf—plasma clotting time: 91.58 ± 19.43 s
[5]; 1.5 mM
  Fmax—maximum clotting: 76.35 ± 9.75 %T
  Fvo—initial plasma clotting velocity: 120.32 ± 48.40 %T/min
  Sc—area under the curve of a stable clot formation: 511.33 ± 178.11 %T x min
  Sf—area under the clot formation curve: 87.66 ± 44.66 %T x min
  S—overall potential of clot formation: 1467.86 ± 181.79 %T x min
  TGt—thrombin generation time: 170.50 ± 31.73 s
  Tf—plasma clotting time: 101.45 ± 38.76 s
